Test results from ChEMBL document CHEMBL4152332, “Discovery and synthesis of novel magnolol derivatives with potent anticancer activity in non-small cell lung cancer” (Eur J Med Chem, 2018).

How the values were obtained:
Mus musculus [1] = experiment: Toxicity in Balb/c mouse xenografted with human NCI-H1975 cells assessed as effect on liver size at 5 to 20 mg/kg, iv treated every 2 days for 9 days; format: organism-based; conditions: in vivo
[2] = Antitumor activity against mouse C26 cells implanted in Balb/c mouse assessed as tumor growth inhibition at 100 mg/kg, po qd and measured every 2 days relative to control; format: functional; conditions: 48 h, read-out: TGI
Mus musculus [3] = experiment: Toxicity in Balb/c mouse xenografted with human NCI-H1975 cells assessed as effect on heart size at 5 to 20 mg/kg, iv treated every 2 days for 9 days; format: organism-based; conditions: in vivo
HCC827 [4] = experiment: Antiproliferative activity against human HCC827 cells after 72 hrs by MTT assay; format: functional, cell-based; conditions: HCC827, 72 h
NCI-H1975 [5] = experiment: Induction of apoptosis in human NCI-H1975 cells assessed as early apoptotic cells at 20 uM after 48 hrs by annexin V/FITC-propidium iodide staining-based flow cytometric method ( Rvb = 6.09%); format: functional
NCI-H1975 [6] = experiment: Induction of apoptosis in human NCI-H1975 cells assessed as viable cells at 5 uM after 48 hrs by annexin V/FITC-propidium iodide staining-based flow cytometric method ( Rvb = 82.5%); format: functional; conditions: NCI-H1975, 48 h, read-out: Activity
NCI-H1650 = experiment: Antiproliferative activity against human NCI-H1650 cells after 72 hrs by MTT assay; format: functional, cell-based; conditions: NCI-H1650, 72 h
NCI-H460 [7] = experiment: Potency index, ratio of IC50 for magnolol to IC50 for test compound for antiproliferative activity against human H460 cells after 72 hrs by MTT assay; format: functional
HCC827 [8] = experiment: Potency index, ratio of IC50 for honokiol to IC50 for test compound for antiproliferative activity against human HCC827 cells after 72 hrs by MTT assay; format: functional
Mus musculus [9] = experiment: Toxicity in Balb/c mouse xenografted with human NCI-H1975 cells assessed as mouse death at 10 to 100 mg/kg, po qd treated for 18 days and measured every 2 days after compound dosing; format: organism-based; conditions: in vivo
Mus musculus [10] = experiment: Toxicity in Balb/c mouse xenografted with human NCI-H1975 cells assessed as change in body weight at 30 mg/kg, po qd treated for 18 days and measured every 2 days after compound dosing ( Rvb = 2.89%); format: organism-based; conditions: in vivo
NCI-H1975 [11] = experiment: Induction of apoptosis in human NCI-H1975 cells assessed as necrotic cells at 20 uM after 48 hrs by annexin V/FITC-propidium iodide staining-based flow cytometric method ( Rvb = 1.01%); format: functional
NCI-H1975 [12] = experiment: Cell cycle arrest in human NCI-H1975 cells assessed as accumulation at S phase at 10 uM after 24 hrs by propidium iodide staining-based flow cytometric analysis (reference value: 22.93%); format: functional
[13] = Antiproliferative activity against human SPC-A1 cells after 72 hrs by MTT assay; format: functional, cell-based; conditions: SPCA1, 72 h
Mus musculus [14] = experiment: Toxicity in Balb/c mouse xenografted with human NCI-H1975 cells assessed as effect on lung size at 5 to 20 mg/kg, iv treated every 2 days for 9 days; format: organism-based; conditions: in vivo
NCI-H1975 [15] = experiment: Induction of apoptosis in human NCI-H1975 cells assessed as necrotic cells at 5 uM after 48 hrs by annexin V/FITC-propidium iodide staining-based flow cytometric method ( Rvb = 1.01%); format: functional
Mus musculus [16] = experiment: Toxicity in Balb/c mouse xenografted with human NCI-H1975 cells assessed as mouse death at 5 to 20 mg/kg, iv treated every 2 days for 9 days and measured every 2 days after compound dosing; format: organism-based; conditions: in vivo
NCI-H1975 [17] = experiment: Induction of apoptosis in human NCI-H1975 cells assessed as decrease in Cdk2 level after 24 hrs by Western blot analysis; format: functional, cell-based
Mus musculus [18] = experiment: Toxicity in Balb/c mouse xenografted with human NCI-H1975 cells assessed as effect on liver morphology at 5 to 20 mg/kg, iv treated every 2 days for 9 days; format: organism-based; conditions: in vivo
Mus musculus [19] = experiment: Toxicity in Balb/c mouse xenografted with human NCI-H1975 cells assessed as effect on lung morphology at 5 to 20 mg/kg, iv treated every 2 days for 9 days; format: organism-based; conditions: in vivo
NCI-H1975 [20] = experiment: Induction of apoptosis in human NCI-H1975 cells after 48 hrs by annexin V/FITC-propidium iodide staining-based flow cytometric method; format: functional, cell-based
NCI-H1975 [21] = experiment: Induction of apoptosis in human NCI-H1975 cells assessed as late apoptotic cells at 10 uM after 48 hrs by annexin V/FITC-propidium iodide staining-based flow cytometric method ( Rvb = 10.4%); format: functional
NCI-H1975 [22] = experiment: Cell cycle arrest in human NCI-H1975 cells assessed as reduction in accumulation at G2/M phase after 24 hrs by propidium iodide staining-based flow cytometric analysis; format: functional
Mus musculus [23] = experiment: Toxicity in Balb/c mouse xenografted with human NCI-H1975 cells assessed as change in body weight at 10 mg/kg, iv treated every 2 days for 9 days and measured every 2 days after compound dosing ( Rvb = 2.89%); format: organism-based; conditions: in vivo
NCI-H1975 [24] = experiment: Induction of apoptosis in human NCI-H1975 cells assessed as decrease in Cdk4 level after 24 hrs by Western blot analysis; format: functional, cell-based
NCI-H1975 [25] = experiment: Induction of apoptosis in human NCI-H1975 cells assessed as early apoptotic cells at 5 uM after 48 hrs by annexin V/FITC-propidium iodide staining-based flow cytometric method ( Rvb = 6.09%); format: functional
NCI-H1975 [26] = experiment: Induction of apoptosis in human NCI-H1975 cells assessed as increase in cleaved caspase-3 level after 48 hrs by Western blot analysis; format: functional, cell-based
NCI-H1975 [27] = experiment: Induction of apoptosis in human NCI-H1975 cells assessed as necrotic cells at 10 uM after 48 hrs by annexin V/FITC-propidium iodide staining-based flow cytometric method ( Rvb = 1.01%); format: functional
Mus musculus [28] = experiment: Toxicity in Balb/c mouse xenografted with human NCI-H1975 cells assessed as change in body weight at 10 mg/kg, po qd treated for 18 days and measured every 2 days after compound dosing ( Rvb = 2.89%); format: organism-based; conditions: in vivo
NCI-H1975 [29] = experiment: Cell cycle arrest in human NCI-H1975 cells assessed as accumulation at G2/M phase at 20 uM after 24 hrs by propidium iodide staining-based flow cytometric analysis (reference value: 20.11%); format: functional
NCI-H1975 [30] = experiment: Induction of apoptosis in human NCI-H1975 cells assessed as decrease in cyclin E level after 24 hrs by Western blot analysis; format: functional, cell-based
Mus musculus [31] = experiment: Toxicity in Balb/c mouse xenografted with human NCI-H1975 cells assessed as change in body weight at 20 mg/kg, iv treated every 2 days for 9 days and measured every 2 days after compound dosing ( Rvb = 2.89%); format: organism-based; conditions: in vivo
HUVEC = experiment: Antimigratory activity against HUVEC after 24 to 48 hrs by phase contrast/fluorescence microscopic analysis; format: functional, cell-based; conditions: Homo sapiens
NCI-H1975 [32] = experiment: Cell cycle arrest in human NCI-H1975 cells assessed as accumulation at G0/G1 phase at 5 uM after 24 hrs by propidium iodide staining-based flow cytometric analysis (reference value: 56.11%); format: functional
Mus musculus [33] = experiment: Toxicity in Balb/c mouse implanted with mouse C26 cells assessed as mouse death at 100 mg/kg, po qd treated for 10 days; format: organism-based; conditions: in vivo, 240 h
NCI-H460 [34] = experiment: Antiproliferative activity against human H460 cells after 72 hrs by MTT assay; format: functional, cell-based; conditions: NCI-H460, 72 h

**Q.** For `C=CCc1ccc(O)c(-c2cc(CC=C)cc(CN3CCC(N)CC3)c2O)c1`, which Activity (Mus musculus [1]) is on record?
**A.** Non-Toxic

**Q.** And the inhibition in vivo at 100 mg/kg [2]?
**A.** 47.9%

**Q.** What about the Activity (Mus musculus [3]) of the same compound?
**A.** Non-Toxic

**Q.** What about the IC50 (HCC827 [4]) of the same compound?
**A.** 5.01 µM

**Q.** And the Activity (NCI-H1975 [5])?
**A.** 46.8%

**Q.** And the viability at 5 µM (NCI-H1975 [6])?
**A.** 66.5%

**Q.** And the IC50 (NCI-H1650)?
**A.** 4.81 µM

**Q.** What about the “Ratio IC50” value (NCI-H460 [7]) of the same compound?
**A.** 8

**Q.** What about the “Ratio IC50” value (HCC827 [8]) of the same compound?
**A.** 4

**Q.** And the Activity (Mus musculus [9])?
**A.** Non-Toxic

**Q.** What about the Activity (Mus musculus [10]) of the same compound?
**A.** 8.85%

**Q.** And the Activity (NCI-H1975 [11])?
**A.** 0.35%

**Q.** And the Activity (NCI-H1975 [12])?
**A.** 18.57%

**Q.** What about the IC50 [13] of the same compound?
**A.** 7.89 µM

**Q.** And the Activity (Mus musculus [14])?
**A.** Non-Toxic

**Q.** What about the Activity (NCI-H1975 [15]) of the same compound?
**A.** 0.52%

**Q.** What about the Activity (Mus musculus [16]) of the same compound?
**A.** Non-Toxic

**Q.** And the Activity (NCI-H1975 [17])?
**A.** Dose-dependent effect

**Q.** And the Activity (Mus musculus [18])?
**A.** Non-Toxic

**Q.** What about the Activity (Mus musculus [19]) of the same compound?
**A.** Non-Toxic

**Q.** And the Activity (NCI-H1975 [20])?
**A.** Dose-dependent effect

**Q.** What about the Activity (NCI-H1975 [21]) of the same compound?
**A.** 32.8%

**Q.** And the Activity (NCI-H1975 [22])?
**A.** Dose-dependent effect

**Q.** What about the Activity (Mus musculus [23]) of the same compound?
**A.** 8.89%

**Q.** And the Activity (NCI-H1975 [24])?
**A.** Dose-dependent effect

**Q.** What about the Activity (NCI-H1975 [25]) of the same compound?
**A.** 6.68%

**Q.** What about the Activity (NCI-H1975 [26]) of the same compound?
**A.** Dose-dependent effect

**Q.** And the Activity (NCI-H1975 [27])?
**A.** 0.4%

**Q.** What about the Activity (Mus musculus [28]) of the same compound?
**A.** 13.3%

**Q.** What about the Activity (NCI-H1975 [29]) of the same compound?
**A.** 6.13%

**Q.** What about the Activity (NCI-H1975 [30]) of the same compound?
**A.** Dose-dependent effect

**Q.** And the Activity (Mus musculus [31])?
**A.** 8.23%

**Q.** And the Activity (HUVEC)?
**A.** Dose-dependent effect

**Q.** What about the Activity (NCI-H1975 [32]) of the same compound?
**A.** 62.26%

**Q.** What about the Activity (Mus musculus [33]) of the same compound?
**A.** Non-Toxic

**Q.** And the IC50 (NCI-H460 [34])?
**A.** 5.98 µM
